Entries after “also recorded” stand apart in the source; their conditions may differ.
Columns and labels:
primary human HSCs = assay: qPCR of key pathway genes in primary human HSCs; type: cell-based; details: TGF-β1 2 ng/mL vs vehicle, 24 h
Procedure: (§1) Total RNA was extracted from cultured cells or liver tissue samples using PureLink RNA Mini Kit (Ambion, 12183018A). 0.8 μg of total RNA was reverse transcribed to cDNA in a reaction volume of 10 μl using PrimeScript RT Reagent Kit (TAKARA, RR037A). Quantitative real-time PCR reactions were carried out using iQSYBRGreen (Bio-Rad) in a Bio-Rad iCycler. Gene expression levels were normalized against housekeeping genes HPRT1 and RPLP0.

[1] = tested on: LX-2 human hepatic stellate cells; assay: qPCR and immunoblotting of gene expression in LX-2 cells; type: cell-based; details: TGF-β1 5 ng/mL vs vehicle, 24 h
Procedure: LX-2 human hepatic stellate cells (Yale Liver Center) were maintained in DMEM (Gibco, 11965-092) supplemented with 10% heat-inactivated fetal bovine serum (Gibco, 26140-079) and 1% PS (penicillin and streptomycin) at 37° C. in 5% humidified CO2 tissue culture incubator. Generally, cells were plated and transfected in a 24-well plate scale. For transfection with siRNA, let-7, or iLet7, 10 pmol of siTET3 (or siCon), let-7 (or miCon), or iLet7 (iCon) were mixed with 25 μl of OPTI-MEM (Gibco, 31985-070) by gentle pipetting. In parallel, 1 μl of Lipofectamine 3000 (ThermoFisher Scientific, L3000015) was mixed with 25 μl of OPTI-MEM. Then, the contents from the two tubes were mixed by gentle pipetting. After incubation for 5 min at RT, the resulting 50 μl solution was used to resuspend cell pellet (5×10^4 cells). After incubation at RT for 10 min, 450 μl of growth medium was added and the cell suspension was transferred into one well of a 24-well plate. For transfection with TET3-expression plasmid pTET3 (pcDNA-Flag-Tet3, Addgene plasmid #60940, (30)) or control vector, 5×10^4 cells per well were seeded in a 24-well plate the night before transfection. The next day, 0.75 μg of pTET3 (or Vec) were mixed with 1 μl of P3000 in 25 μl of OPTI-MEM by gentle pipetting. In parallel, 0.5 μl of Lipofectamine 3000 were mixed with 25 μl of OPTI-MEM. The contents from the two tubes were combined by gentle pipetting and incubated for 5 min at RT. The resulting 50 μl of transfection solution was added to each well of cells seeded in a 24-well plate the night before and from which the growth medium had been removed. After 6 h of incubation in a tissue culture incubator, 500 μl of growth medium were added to each well of cells. For TGF-β1 (Sigma, USA) treatment experiments, transfected cells were incubated in 500 μl of serum-free DMEM containing 5 ng/mL TGF-β1 (diluted with HCl) or HCl (as control) for 24 h or 48 h as indicated.
as §1
For liver tissue samples, 5-10 mg of tissues were homogenized by sonication (Qsonica, Model Q125) in 150 μl of 2×SDS-sample buffer. Samples were immediately heated at 100° C. for 3 min with occasional vertexing. Then, 100 μl of 2×SDS-sample buffer was added to each sample and the 250 μl of tissue lysate were further homogenized by sonication and heated again at 100° C. for 3-5 min with vertexing once every 15 sec. Samples (further diluted at 1:1 with 2×SDS-sample buffer before loading) were loaded 5-10 μl per well onto a 4-15% gradient SDS gel, followed by Western blot analysis. Image J was used to quantify the protein bands.

Substance: TGF-β1: TGF-β1 (Sigma) used to stimulate LX-2 cells and primary human HSCs
- expression of TET2 and TET1 (primary human HSCs): decreased expression of TET2 and TET1
- expression of TET3, TGFB1, TSP1, TGFBR2, FN1, and COL1A1 (primary human HSCs): increased expression of TET3, TGFB1, TSP1, TGFBR2, FN1, and COL1A1
- LIN28B expression [1]: stimulated expression of LIN28B
- SMAD3 phosphorylation (with expression of α-SMA, COL1A1, FN1 and TIMP1) [1]: concomitant increase in SMAD3 phosphorylation; also recorded: increased Smad3 phosphorylation
- TET3 expression (mRNA and protein) [1]: upregulated TET3; also recorded: increased expression of TET3
- expression of TGF-β1, TSP1, and TGFBR2 [1]: also increased
- let-7a and let-7b expression [1]: decreased expression of let-7a and let-7b

From patent US20220160751A1, “METHODS OF TREATMENT OF DISEASES AND DISORDERS ASSOCIATED WITH INCREASED TET LEVEL, INCREASED H19 LEVEL, INCREASED LEVEL OF TGF SIGNALING, OR ANY COMBINATION THEREOF” (YALE UNIVERSITY, priority 2019, published 2022)
